The record followed here is ChEMBL document CHEMBL1909046, “DrugMatrix in vitro pharmacology data”.

What is called IC50 is the concentration at which inhibition is half-maximal. By Ki is commonly meant the dissociation constant of the complex between target and ligand, obtained from inhibition or displacement.

The nature of test [1]: DRUGMATRIX: Calcium Channel Type L, Benzothiazepine radioligand binding (ligand: [3H] Diltiazem). In kind it is cell membranes, Rattus norvegicus, Wistar, Brain, Membrane. The following applies: Not Active = under 50% inhibition at 10 µM.
A short description of test [2]: DRUGMATRIX: Tumor Necrosis Factor (TNF), Non-Selective radioligand binding (ligand: [125I] TNF-alpha). The following applies: u-937; Not Active = under 50% inhibition at 10 µM. In kind it is cell membranes, Membrane.
Test [3] is described as follows: DRUGMATRIX: GABAA, Chloride Channel, TBOB radioligand binding (ligand: [3H] TBOB). In kind it is cell membranes, Rattus norvegicus, Wistar, Cerebral cortex, Membrane. The following applies: Not Active = under 50% inhibition at 10 µM.
The nature of test [4]: DRUGMATRIX: Interleukin IL-1 radioligand binding (ligand: [125I] interleukin 1beta). In kind it is cell membranes, Membrane. The following applies: nih3t3; Not Active = under 50% inhibition at 10 µM.
Test [5] in a line: DRUGMATRIX: Purinergic P2X radioligand binding (ligand: [3H] alpha, beta-Methylene-ATP). In kind it is cell membranes, Oryctolagus cuniculus, New Zealand albino, Urinary bladder, Membrane. Conditions: Not Active = under 50% inhibition at 10 µM.
The target in another test is T1, Glucocorticoid receptor (Homo sapiens, UniProt P04150). Also: in other assays of this panel Not Active means under 50% inhibition at 10 µM.
T1 sequence (P04150 whole entry): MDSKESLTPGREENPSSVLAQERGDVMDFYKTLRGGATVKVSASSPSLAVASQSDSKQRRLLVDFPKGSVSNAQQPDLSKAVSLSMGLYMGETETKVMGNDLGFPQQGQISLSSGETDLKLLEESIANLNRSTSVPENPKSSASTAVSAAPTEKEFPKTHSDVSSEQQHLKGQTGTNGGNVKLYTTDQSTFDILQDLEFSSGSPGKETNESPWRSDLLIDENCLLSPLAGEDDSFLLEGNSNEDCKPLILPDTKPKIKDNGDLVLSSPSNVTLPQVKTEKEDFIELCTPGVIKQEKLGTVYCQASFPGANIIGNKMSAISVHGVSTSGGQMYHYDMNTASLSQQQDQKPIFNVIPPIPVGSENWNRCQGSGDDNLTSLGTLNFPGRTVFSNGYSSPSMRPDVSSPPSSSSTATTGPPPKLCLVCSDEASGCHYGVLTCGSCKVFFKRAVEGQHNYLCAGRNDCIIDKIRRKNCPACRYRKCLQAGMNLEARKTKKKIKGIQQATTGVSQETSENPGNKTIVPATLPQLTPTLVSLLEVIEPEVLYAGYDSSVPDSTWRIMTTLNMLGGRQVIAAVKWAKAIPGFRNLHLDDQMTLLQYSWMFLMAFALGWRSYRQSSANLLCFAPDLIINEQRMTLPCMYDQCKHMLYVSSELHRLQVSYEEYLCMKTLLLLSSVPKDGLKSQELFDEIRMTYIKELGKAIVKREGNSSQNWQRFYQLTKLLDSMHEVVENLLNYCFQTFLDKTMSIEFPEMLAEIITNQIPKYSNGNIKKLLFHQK
Conditions: hela s3.

As for `CCCCC(=O)N(Cc1ccc(-c2ccccc2-c2nnn[nH]2)cc1)[C@H](C(=O)O)C(C)C`, the IC50 result (in test [1]; in test [2]; in test [3]; in test [4]; in test [5]; against Glucocorticoid receptor) was “Not Active” in each case. The Ki entry in test [1], in test [2], in test [3], in test [4] and in test [5] was “Not Active” throughout.

Turning to `CN1[C@@H]2CC[C@H]1C[C@@H](OC(c1ccccc1)c1ccccc1)C2` [BENZTROPINE], the IC50 entry on Glucocorticoid receptor was “Not Active”.

On to `C[C@@](Cc1ccc(O)c(O)c1)(NN)C(=O)O.O` [CARBIDOPA], for which the IC50 result in test [1], in test [2], in test [3], in test [4] and in test [5] was “Not Active” in each case. Besides, the Ki result in test [1], in test [2], in test [3], in test [4] and in test [5] was “Not Active” in each case.

For the compound `CN1CCN(C2=Nc3cc(Cl)ccc3Nc3ccccc32)CC1` [CLOZAPINE], the IC50 result against Glucocorticoid receptor is “Not Active”.

Regarding `O=C(O)CCCCC1CCSS1` (stereo not drawn) [LIPOIC ACID, ALPHA], the IC50 result (in test [1]; in test [2]; in test [3]; in test [4]; in test [5]; on Glucocorticoid receptor) was “Not Active” throughout. Moreover, the Ki entry in test [1], in test [2], in test [3], in test [4] and in test [5] was “Not Active” in each case.

As for `CN(C)C(=O)C(CCN1CCC(O)(c2ccc(Cl)cc2)CC1)(c1ccccc1)c1ccccc1` [LOPERAMIDE], the IC50 entry against Glucocorticoid receptor is “Not Active”.

With `C[C@]12C=CC(=O)C=C1CC[C@@H]1[C@@H]2C(=O)C[C@@]2(C)[C@H]1CC[C@]2(O)C(=O)CO` [PREDNISONE], the IC50 result in test [1], in test [2], in test [3], in test [4] and in test [5] was “Not Active” in each case. The Ki entry in test [1], in test [2], in test [3], in test [4] and in test [5] was “Not Active” each time.

As for `COC(=O)[C@H]1[C@H]2C[C@@H]3c4[nH]c5cc(OC)ccc5c4CCN3C[C@H]2C[C@@H](OC(=O)c2cc(OC)c(OC)c(OC)c2)[C@@H]1OC` [RESERPINE], the IC50 was 3.71 µM in test [1] (read-out: IC50); “Not Active” in test [2]; “Not Active” in test [3]; “Not Active” in test [4]; “Not Active” in test [5]; “Not Active” against Glucocorticoid receptor. The Ki was 3.29 µM in test [1] (read-out: Ki); “Not Active” in test [2]; “Not Active” in test [3]; “Not Active” in test [4]; “Not Active” in test [5].

For `O=C(O)c1ccccc1O` [SALICYLIC ACID], the concentration for half-maximal inhibition (IC50) result in test [1], in test [2], in test [3], in test [4] and in test [5] was “Not Active” in each case. The inhibition constant Ki result in test [1], in test [2], in test [3], in test [4] and in test [5] was “Not Active” throughout.

Consider `CC1CCC(NC(=O)N(CCCl)N=O)CC1` (stereo unspecified) [SEMUSTINE], for which the IC50 entry (in test [1]; in test [2]; in test [3]; in test [4]; in test [5]; on Glucocorticoid receptor) was “Not Active” each time. Besides, the Ki entry in test [1], in test [2], in test [3], in test [4] and in test [5] was “Not Active” throughout.

In the case of `O=C1C[C@@H]2OCC=C3CN4CC[C@]56c7ccccc7N1[C@H]5[C@H]2[C@H]3C[C@H]46` [STRYCHNINE], the IC50 entry in test [1], in test [2], in test [3], in test [4] and in test [5] was “Not Active” each time. The Ki result in test [1], in test [2], in test [3], in test [4] and in test [5] was “Not Active” throughout.

For `C[N+](C)(C)CCOC(=O)CCC(=O)OCC[N+](C)(C)C.[Cl-].[Cl-]` [SUCCINYLCHOLINE CHLORIDE], the IC50 result (in test [1]; in test [2]; in test [3]; in test [4]; in test [5]; at Glucocorticoid receptor) was “Not Active” in each case. Further, the Ki entry in test [1], in test [2], in test [3], in test [4] and in test [5] was “Not Active” each time.

Turning to `Nc1ccc(S(=O)(=O)NC(=O)c2ccccc2)cc1` [SULFABENZAMIDE], the IC50 result (in test [1]; in test [2]; in test [3]; in test [4]; in test [5]; on Glucocorticoid receptor) was “Not Active” in each case. Also, the Ki entry in test [1], in test [2], in test [3], in test [4] and in test [5] was “Not Active” throughout.

Consider `O=c1[nH]c(=O)n(C2CCCO2)cc1F` (stereo unspecified) [TEGAFUR], for which the IC50 entry in test [1], in test [2], in test [3], in test [4] and in test [5] was “Not Active” each time. Besides, the Ki result in test [1], in test [2], in test [3], in test [4] and in test [5] was “Not Active” throughout.

`CC(=N)S` [THIOACETAMIDE]: the IC50 result in test [1], in test [2], in test [3], in test [4] and in test [5] was “Not Active” in each case. The Ki result in test [1], in test [2], in test [3], in test [4] and in test [5] was “Not Active” throughout.

For `CC(=O)OCC(COC(C)=O)OC(C)=O` [TRIACETIN], the IC50 result (in test [1]; in test [2]; in test [3]; in test [4]; in test [5]; against Glucocorticoid receptor) was “Not Active” each time. The Ki entry in test [1], in test [2], in test [3], in test [4] and in test [5] was “Not Active” each time.

`CN1CCN(CCCN2c3ccccc3Sc3ccc(C(F)(F)F)cc32)CC1` [TRIFLUOPERAZINE]: the IC50 result (in test [1]; in test [2]; in test [3]; in test [4]; in test [5]; on Glucocorticoid receptor) was “Not Active” in each case. Further, the Ki entry in test [1], in test [2], in test [3], in test [4] and in test [5] was “Not Active” in each case.
